# Results taken from patent publication US11213020B2, “Atopic dermatitis model non-human animal and use thereof” (KYUSHU UNIVERSITY, NATIONAL UNIVERSITY CORPORATION, priority 2016, dated 2022).
# Legend:
# EPAS1 protein = experiment: Western blotting of EPAS1 expression in CD4+ T cells treated with EPAS1 inhibitor; assay type: cell-based; details: human CD4+ T cells (patients with atopic dermatitis and healthy controls), inhibitor at 30 μM, FIG. 44
# From the text: (§1) Human peripheral blood samples were collected from atopic dermatitis patients and healthy volunteers in compliance with Institutional Review Board protocols of the facility. Human peripheral blood mononuclear cells (PBMC) were separated by Percoll (GE Healthcare) gradient centrifugation. The CD4^+ T cells were isolated from PBMCs by magnetic sorting by using Dynabeads human CD4 followed by treatment with DETACHaBEAD human CD4 (Life Technologies).
# (§2) After being suspended in complete RPMI 1640 medium, CD4^+ T cells (3×10^5 cells/well) were stimulated in a 24-well plate coated with anti-human CD3ε antibody (model “Hit3a”, Tonbo Biosciences) for 6 hours. In some experiments, the CD4^+ T cells were treated with EPAS1 inhibitors, FM19G11 or HIFVII at 30 μM (both from Calbiochem).
# Cells were lysed in 20 mM Tris-HCl buffer (pH 7.5) containing 1% Triton X-100, 150 mM NaCl, 1 mM EDTA, 1 mM EGTA, 2.5 mM sodium pyrophosphate, 1 mM β-glycerophosphate, 1 mM Na3VO4, and complete protease inhibitors (Roche).
# After centrifugation, the supernatants were mixed with an equal volume of 2× sample buffer (125 mM Tris-HCl, 0.01% bromophenacyl bromide, 4% SDS, 20% glycerol, and […] dithiothreitol). Samples were boiled for 5 minutes and analyzed by inmmunoblotting.
# The following antibodies were used. […]
# IL-31 gene = IL-31 gene expression in CD4+ T cells from patients with atopic dermatitis following TCR stimulation (real-time PCR); assay type: cell-based, human; details: anti-CD3ε stimulation 6 hours, inhibitor at 30 μM, FIG. 45 (a), (c)
# From the text: as §1, §2
# (§3) Total RNA was extracted using ISOGEN (trade name, Nippon Gene). After treatment with RNase-free DNase I (Life Technologies), RNA samples were reverse-transcribed with oligo (dT) primers (Life Technologies) and SuperScript III reverse transcriptase (Life Technologies) for amplification by PCR.
# (§4) Real-time PCR was performed using ABI PRISM 7,000 Sequence Detection System (trade name, Applied Biosystems) and SYBR Green PCR Master Mix (Applied Biosystems).
# (§5) The expression levels of human and mouse target genes were normalized based on expression levels of GAPDH and HPRT. […]
# IL-2 gene = IL-2 gene expression in CD4+ T cells from patients with atopic dermatitis following TCR stimulation (real-time PCR); assay type: cell-based, human; details: anti-CD3ε stimulation 6 hours, inhibitor at 30 μM, FIG. 45 (b)
# From the text: as §1, §2, §3, §4, §5
smiles,measurement,setting,value
"Cc1ccc(C(=O)COC(=O)c2cccc(NC(=O)c3ccc([N+](=O)[O-])cc3[N+](=O)[O-])c2)cc1 [FM19G11, 3-[(2,4-dinitrobenzoyl)amino]-benzoic acid 2-(4-methylphenyl)-2-oxoethyl ester]",expression level of EPAS1 protein,EPAS1 protein,markedly decreased
same,expression of the IL-31 gene following TCR stimulation,IL-31 gene,markedly suppressed
same,expression levels of the IL-2 gene following TCR stimulation,IL-2 gene,comparable
